Earlier results on one compound are cited in patent US20090136550A1, “MODIFIED RELEASE FORMULATIONS OF DILTIAZEM” (Capricorn Pharma Inc., priority 2007, published 2009).

Where a name gives a salt, the structure may show the parent alone.

In the case of `COc1ccc([C@@H]2Sc3ccccc3N(CCN(C)C)C(=O)[C@@H]2OC(C)=O)cc1` [diltiazem hydrochloride], the water solubility result is “highly water soluble”.
